Results taken from patent publication US10961232B2, “Substituted pyrazines as ATR kinase inhibitors” (Vertex Pharmaceuticals Incorporated, priority 2008, dated 2021).
Where two headings read alike, the source gives them in different places.

Target: full-length ATR (Homo sapiens (Human), UniProt Q13535)
Assay: ATR inhibition assay (radioactive-phosphate incorporation)
Assay type: biochemical
Procedure: Example 76A: ATR Inhibition Assay
Compounds were screened for their ability to inhibit ATR kinase using a radioactive-phosphate incorporation assay. Assays were carried out in a mixture of 50 mM Tris/HCl (pH 7.5), 10 mM MgCl2 and 1 mM DTT.
Assays were carried out at 25° C. in the presence of 5 nM full-length ATR. An assay stock buffer solution was prepared containing all of the reagents listed above, with the exception of ATP and the test compound of interest. […] The plate was pre-incubated for 10 minutes at 25° C. and the reaction initiated by addition of 15 μL [γ-33P]ATP (final concentration 10 μM).
The reaction was stopped after […] by the addition of 30 μL, 0.1M phosphoric acid containing 2 mM ATP. A multiscreen phosphocellulose filter 96-well plate (Millipore, Cat no. MAPHN0B50) was pretreated with 100 μL, 0.2M phosphoric acid prior to the addition of 45 μL of the stopped assay mixture. […] After drying, 100 μL Optiphase ‘SuperMix’ liquid scintillation cocktail (Perkin Elmer) was added to the well prior to scintillation counting (1450 Microbeta Liquid Scintillation Counter, Wallac).
After removing mean background values for all of the data points, Ki(app) data were calculated from non-linear regression analysis of the initial rate data using the Prism software package (GraphPad Prism version 3.0cx for Macintosh, GraphPad Software, San Diego, Calif., USA).

[1] = ATR Inhibition Ki values, 5 nM full-length ATR, 10 μM ATP

Chain of full-length ATR (Q13535 whole entry): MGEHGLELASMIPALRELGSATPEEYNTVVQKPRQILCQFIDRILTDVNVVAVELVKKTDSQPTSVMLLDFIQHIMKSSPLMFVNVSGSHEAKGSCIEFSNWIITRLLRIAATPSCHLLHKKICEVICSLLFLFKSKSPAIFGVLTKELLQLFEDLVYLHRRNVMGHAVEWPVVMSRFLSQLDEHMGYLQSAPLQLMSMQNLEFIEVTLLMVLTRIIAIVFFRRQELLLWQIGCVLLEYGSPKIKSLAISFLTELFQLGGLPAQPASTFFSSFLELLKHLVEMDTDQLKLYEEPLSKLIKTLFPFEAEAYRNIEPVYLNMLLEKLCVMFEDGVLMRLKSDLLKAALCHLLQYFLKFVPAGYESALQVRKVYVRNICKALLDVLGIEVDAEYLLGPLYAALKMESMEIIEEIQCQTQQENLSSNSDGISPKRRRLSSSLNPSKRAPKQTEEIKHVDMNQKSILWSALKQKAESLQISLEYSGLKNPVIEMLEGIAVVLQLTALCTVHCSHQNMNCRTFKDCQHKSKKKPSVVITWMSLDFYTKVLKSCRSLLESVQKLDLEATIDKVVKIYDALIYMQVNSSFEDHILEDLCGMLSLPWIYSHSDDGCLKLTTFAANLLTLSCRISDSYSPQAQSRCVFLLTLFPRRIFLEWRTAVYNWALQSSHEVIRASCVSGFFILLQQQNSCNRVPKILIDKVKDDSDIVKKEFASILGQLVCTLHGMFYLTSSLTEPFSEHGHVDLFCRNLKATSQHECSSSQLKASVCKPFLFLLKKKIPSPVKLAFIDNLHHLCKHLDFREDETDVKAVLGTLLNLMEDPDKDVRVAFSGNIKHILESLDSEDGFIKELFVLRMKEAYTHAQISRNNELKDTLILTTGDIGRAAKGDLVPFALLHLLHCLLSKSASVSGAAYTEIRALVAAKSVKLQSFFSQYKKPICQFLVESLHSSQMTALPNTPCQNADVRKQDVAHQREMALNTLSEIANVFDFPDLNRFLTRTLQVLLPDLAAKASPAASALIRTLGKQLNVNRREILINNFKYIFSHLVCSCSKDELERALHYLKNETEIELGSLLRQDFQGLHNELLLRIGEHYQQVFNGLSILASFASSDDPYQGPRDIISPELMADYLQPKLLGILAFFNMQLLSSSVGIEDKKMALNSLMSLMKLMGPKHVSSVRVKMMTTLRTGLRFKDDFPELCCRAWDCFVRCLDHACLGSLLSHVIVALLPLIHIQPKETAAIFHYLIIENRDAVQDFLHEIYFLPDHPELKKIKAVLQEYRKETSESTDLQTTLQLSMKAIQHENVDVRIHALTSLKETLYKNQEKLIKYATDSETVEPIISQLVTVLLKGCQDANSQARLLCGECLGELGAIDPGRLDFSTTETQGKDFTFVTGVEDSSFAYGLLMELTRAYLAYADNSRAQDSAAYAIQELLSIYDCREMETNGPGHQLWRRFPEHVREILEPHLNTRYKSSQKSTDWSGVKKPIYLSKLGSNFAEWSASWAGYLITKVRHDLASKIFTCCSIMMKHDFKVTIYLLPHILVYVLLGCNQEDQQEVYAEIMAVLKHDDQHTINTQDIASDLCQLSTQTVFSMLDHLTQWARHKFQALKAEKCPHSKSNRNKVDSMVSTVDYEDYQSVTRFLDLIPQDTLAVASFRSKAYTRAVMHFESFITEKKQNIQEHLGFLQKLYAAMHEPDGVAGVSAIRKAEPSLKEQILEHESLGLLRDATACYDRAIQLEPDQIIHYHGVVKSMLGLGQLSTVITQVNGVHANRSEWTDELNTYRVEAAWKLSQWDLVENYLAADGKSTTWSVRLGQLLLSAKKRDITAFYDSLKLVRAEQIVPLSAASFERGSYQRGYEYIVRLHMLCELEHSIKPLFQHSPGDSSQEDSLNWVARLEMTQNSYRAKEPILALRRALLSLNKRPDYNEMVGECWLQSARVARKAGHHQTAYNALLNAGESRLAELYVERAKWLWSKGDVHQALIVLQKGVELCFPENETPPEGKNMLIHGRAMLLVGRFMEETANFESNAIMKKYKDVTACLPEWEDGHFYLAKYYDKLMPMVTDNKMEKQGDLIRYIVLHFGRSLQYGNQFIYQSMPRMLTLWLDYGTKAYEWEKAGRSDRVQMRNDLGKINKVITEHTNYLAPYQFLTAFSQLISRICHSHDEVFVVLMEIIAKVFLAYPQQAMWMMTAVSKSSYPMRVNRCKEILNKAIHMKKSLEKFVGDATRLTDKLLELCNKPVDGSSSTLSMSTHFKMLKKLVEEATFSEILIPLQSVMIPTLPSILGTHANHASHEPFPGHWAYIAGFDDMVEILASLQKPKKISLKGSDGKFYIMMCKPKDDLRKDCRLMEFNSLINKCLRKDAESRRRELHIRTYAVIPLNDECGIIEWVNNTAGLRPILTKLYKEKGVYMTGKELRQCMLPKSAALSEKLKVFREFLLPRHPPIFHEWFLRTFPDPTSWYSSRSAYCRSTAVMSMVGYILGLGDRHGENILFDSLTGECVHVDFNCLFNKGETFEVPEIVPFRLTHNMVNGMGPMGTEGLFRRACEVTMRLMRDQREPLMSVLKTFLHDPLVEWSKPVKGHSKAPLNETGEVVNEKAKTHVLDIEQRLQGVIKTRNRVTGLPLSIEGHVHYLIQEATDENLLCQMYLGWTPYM

| Ki [nM] | Ki [1] [nM] | Compound |
| --- | --- | --- |
| 10 to 100 |  | Nc1ncc(-c2ccc(C(=O)N3CCCNCC3)c3ccccc23)nc1-c1nnc(-c2ccccc2)o1 [IA-48] |
| 10 to 100 |  | CN(C)C1CCN(C(=O)c2ccc(-c3cnc(N)c(C(=O)Nc4ccccc4)n3)cc2)C1 (stereo not shown) [Compound I-76, 3-amino-6-(4-(3-(dimethylamino)pyrrolidine-1-carbonyl)phenyl)-N-phenylpyrazine-2-carboxamide] |
|  | ≤ 10 | CNCc1ccc(-c2nnc(-c3nc(-c4ccc(S(=O)(=O)C(C)C)c(OC(F)(F)F)c4)cnc3N)o2)cc1 [IA-290, 5-[4-isopropylsulfonyl-3-(trifluoromethoxy)phenyl]-3-[5-[4-(methylaminomethyl)phenyl]-1,3,4-oxadiazol-2-yl]pyrazin-2-amine] |
|  | ≤ 10 | CNCc1ccc(-c2nnc(-c3nc(-c4ccc(S(=O)(=O)C(C)CCOC)cc4)cnc3N)o2)c(F)c1 (stereo not shown) [IA-332, 3-[5-[2-fluoro-4-(methylaminomethyl)phenyl]-1,3,4-oxadiazol-2-yl]-5-[4-(3-methoxy-1-methyl-propyl)sulfonylphenyl]pyrazin-2-amine] |
|  | 10 to 100 | Cc1cccc(NC(=O)c2nc(-c3ccc(S(C)(=O)=O)cc3)cnc2N)n1 [VII-5] |
|  | ≤ 10 | C[S+]([O-])c1ccc(-c2cnc(N)c(-c3nnc(-c4ccccc4)o3)n2)cc1 (stereo not shown) [IA-274, 5-(4-methylsulfinylphenyl)-3-(5-phenyl-1,3,4-oxadiazol-2-yl)pyrazin-2-amine] |
| 10 to 100 |  | CC(C)(C)CCN1CCCN(C(=O)c2ccc(-c3cnc(N)c(-c4nnc(-c5ccccc5)o4)n3)cc2)CC1 [IA-27] |
| 100 to 5000 |  | Nc1ncc(-c2cccc(C(=O)NC3CCC(O)CC3)c2)nc1C(=O)Nc1ccccc1 (stereo not shown) [Compound I-57, 3-amino-6-(3-(4-hydroxycyclohexylcarbamoyl)phenyl)-N-phenylpyrazine-2-carboxamide] |
| ≤ 10 |  | CC(NC(=O)OC(C)(C)C)c1cccc(-c2nnc(-c3nc(-c4ccc(S(=O)(=O)C(C)C)cc4)cnc3N)o2)c1 (stereo not shown) [IA-154, tert-butyl N-[1-[3-[5-[3-amino-6-(4-isopropylsulfonylphenyl)pyrazin-2-yl]-1,3,4-oxadiazol-2-yl]phenyl]ethyl]carbamate] |
|  | ≤ 10 | CS(=O)(=O)c1ccc(-c2cnc(N)c(-c3nnc(-c4ccccc4)o3)n2)cc1 [IA-89, 5-(4-methylsulfonylphenyl)-3-(5-phenyl-1,3,4-oxadiazol-2-yl)pyrazin-2-amine] |
| 10 to 100 |  | Nc1ncc(-c2ccc(C(=O)N3CCCNCC3)cc2)nc1-c1noc(-c2ccccc2)n1 [IA-2] |
|  | 10 to 100 | CCc1cccc(NC(=O)c2nc(-c3ccc(S(C)(=O)=O)cc3)cnc2N)n1 [VII-4] |
| 100 to 5000 |  | CN(C)C1CCN(C(=O)c2cccc(-c3cnc(N)c(C(=O)Nc4ccccc4)n3)c2)C1 (stereo not shown) [Compound I-55, 3-amino-6-(3-(3-(dimethylamino)pyrrolidine-1-carbonyl)phenyl)-N-phenylpyrazine-2-carboxamide] |
